How the values were obtained:
[1] = system: flank organs of male intact Golden Syrian hamsters; test: Hamster flank organ hair growth (hair mass) after topical application; type: in vivo; settings: for Flank Organ Hair Mass, Treated: topical 10-25 μl once a day; for Flank Organ Hair Mass, Treated / % Inhibition of hair mass (+SEM): 18 days; for % Inhibition of hair mass (+SEM): treated organ vs vehicle-treated organ of same animal; for Hair shaft structure, microscopic examination: hair shafts harvested from flank organs
Description: A vehicle or carrier was prepared having the following composition:
The compound BBD was mixed with separate portions of the foregoing vehicle to provide specimens containing 1,2,5,10, and 20% by weight of the inhibitor respectively.
Five groups (seven or eight animals in each group) of male intact Golden Syrian hamsters were provided. These animals are considered acceptable models for human beard hair growth in that they display oval shaped flank organs, one on each side, each about 8 mm. in major diameter, which grow thick black and coarse hair similar to human beard hair. These organs produce hair in response to androgens in the hamster. The flank organs of each hamster were depilated by applying a thioglycolate-based chemical depilatory (Surgex), and to one organ of each animal was applied 10-25 μl. of vehicle alone once a day, while to the other organ of each animal was applied an equal amount of vehicle containing inhibitor. After 2 1/2 weeks of such applications (five days a week for a total of eighteen days), the flank organs were shaved and the amount of recovered hair (hair mass) from each was weighed. The extent of reduction in hair growth by the inhibitor was expressed as the percent decrease in hair mass on the organ treated with inhibitor as compared to the organ treated with vehicle alone. As a control, one additional control group of eight animals had both flank organs of each animal treated with vehicle alone.

transglutaminase = test: Inhibiting effect on transglutaminase activity; type: biochemical

`O=C(N[C@@H](Cc1ccccc1)C(=O)NCC1CC(Br)=NO1)OCc1ccccc1` (some centres unmarked) [BBD, 3-bromo-5-(N-benzyloxycarbonyl-1-phenylalanamido-methyl)-4,5-dihydroisoxazole] was tested. Which “Flank Organ Hair Mass, Treated” value ([1]; 1% BBD in vehicle) did it give?
The value was 2.614 ± .19 mg ± SEM.

What about the “% Inhibition of hair mass (+SEM)” value ([1]; 1% BBD) of the same molecule?
Its value is 19.54 ± 6.07%.

And the “Length of the hair, visual inspection during treatment” value ([1]; 1-20% BBD, topical, hamster flank organ)?
Its value is “decrease in the length of the hair dependent upon the concentration of the inhibitor”.

And the “Flank Organ Hair Mass, Treated” value ([1]; 2% BBD in vehicle)?
Its value is 2.827 ± .23 mg ± SEM.

And the “% Inhibition of hair mass (+SEM)” value ([1]; 2% BBD)?
Its value is -3.63 ± 9.91%.

What about the “Flank Organ Hair Mass, Treated” value ([1]; 5% BBD in vehicle) of the same molecule?
Its value is 2.279 ± .28 mg ± SEM.

What about the “% Inhibition of hair mass (+SEM)” value ([1]; 5% BBD) of the same molecule?
The value was 22.83 ± 9.62%.

And the “Hair shaft structure, microscopic examination” value ([1]; 5% and 10% concentrations of BBD)?
The value was “less dramatic but visually obvious changes in the medulla of hair shafts”.

And the “Flank Organ Hair Mass, Treated” value ([1]; 10% BBD in vehicle)?
The value was 1.389 ± .12 mg ± SEM.

What about the “% Inhibition of hair mass (+SEM)” value ([1]; 10% BBD) of the same molecule?
Its value is 56.08 ± 4.64%.

What about the “Flank Organ Hair Mass, Treated” value ([1]; 20% BBD in vehicle) of the same molecule?
The value was “.333 ± .06 mg ± SEM”.

And the “% Inhibition of hair mass (+SEM)” value ([1]; 20% BBD)?
The value was 87.87 ± 1.54%.

What about the “Hair shaft structure, microscopic examination” value ([1]; 20% concentration of BBD) of the same molecule?
Its value is “dramatic deterioration of the hair shaft structure including disorganization of the medulla and cuticle”.

And the “Inhibiting effect on transglutaminase activity” value (transglutaminase)?
Its value is “dose related”.
